In brackets after ≈: the same amount, converted by molar mass.
Tests used:
HSV-1 [1] = test: Inhibition of HSV-1 replication (anti-viral effect), PFU determination; format: cell-based; details: Human alphaherpesvirus 1; HSV-1 replication in CV-1 cells, 10 PFU per cell, 24 hours after infection
Protocol: 16mm dia. wells are seeded each with 2 x 10⁵ CV-1 cells in 1ml aliquots of MEM10C. After three days, the cells are infected with HSV-1 at 10 PFU (Plaque Forming Units) per cell. The inoculum is replaced, after adsorption for 1.5 hours, in pairs of wells with 0. 5 ml aliquots of MEM5C containing the test concentrations of each of AH-1 and AH-2. Four hours from infection, the cells from two wells are scraped into the medium and frozen to -80°C. [The average of PFU/ml of these samples forms the base for calculating net virus production]. The remaining samples are collected in pairs of wells 24 hours after infection and are also frozen to -80°C. For determination of PFU/ml, each sample is diluted to 10⁻⁸.

CV-1 cells = test: Inhibition of growth of CV-1 cells (cytotoxic effect); format: cell-based, monkey; details: for inhibition of growth: CV-1 cells, 0.1, 0.5, 1, 5, 10 and 50 µg/ml; for IC50: Primates, 96 h, CV-1 cell growth, counted four days after seeding
Protocol: CV-1 cells are seeded into 16 mm dia. wells at 10⁴ cells per well in 1ml aliquots of MEM10C. The following day, the medium is replaced with 0.5 ml aliquots of MEM10C containing the test concentrations of compounds AH-1 and AH-2, i. e. 0, 0.1, 0.5, 1, 5, 10 and 50 µg/ml. Determinations are all carried out in duplicate. Four days after seeding, the cells are trypsinised and counted. Percentage inhibition (%I) relative to the wells without test compound (i.e. the controls) is calculated and the IC₅₀ determined.

HSV-1 [2] = test: Viral plaque reduction in HSV-1 infected CV-1 cells (Table 3); format: cell-based; design: key: (-) indicates no reduction in viral plaque production; (+) indicates a 50% reduction in viral plaque production; (++) indicates an 80% reduction in viral plaque production
Protocol: (§1) This test is performed according to standard procedures for determination of cytotoxicity of a compound againt virus infected cells. In the present case, CV-1 (monkey kidney fibroblast cells) are infected with HSV-1 and the compounds of the invention tested against these at varying concentrations.
(§2) The numbers show the toxicity throughout the CV-1 cells sheet. (-) indicates no reduction in viral plaque production (+) indicates a 50% reduction in viral plaque production (++) indicates an 80% reduction in viral plaque production.

[3] = system: VSV (Vesicular Stomatitis Virus); format: cell-based
[4] = system: CV-1 (monkey kidney fibroblast cells); test: Toxicity throughout the CV-1 cell sheet (Table 3); format: cell-based
Protocol: as §1, §2

[5] = system: L-1210 cells (mouse lymphoma); test: Activity against L-1210 cells; format: cell-based

Structure (SMILES) | IC50 (HSV-1 [1]) [µg/mL] | inhibition of growth (CV-1 cells) | IC50 (CV-1 cells) [µg/mL] | reduction in viral plaque production (HSV-1 [2]; 5µl of 500µg/ml in MeOH/Acet) | reduction in viral plaque production (HSV-1 [2]; 10µl of 500µg/ml in MeOH/Acet) | reduction in viral plaque production (HSV-1 [2]; 20µl of 500µg/ml in MeOH/Acet) | reduction in viral plaque production (HSV-1 [2]; 40µl of 500µg/ml in MeOH/Acet) | activity against VSV [3] | toxicity throughout the CV-1 cells sheet ([4]; 5µl of 500µg/ml in MeOH/Acet) | toxicity throughout the CV-1 cells sheet ([4]; 10µl of 500µg/ml in MeOH/Acet) | toxicity throughout the CV-1 cells sheet ([4]; 20µl of 500µg/ml in MeOH/Acet) | toxicity throughout the CV-1 cells sheet ([4]; 40µl of 500µg/ml in MeOH/Acet) | activity against L-1210 cells [5]
Cc1c2c(c3c4c1C(C1OC1(C)C)CC(C)C4CCC3C)OCO2 (centres unmarked) [AH-1, Helioporin A] | 4 (≈ 12.2 µM) | no inhibition of growth | > 50 | - | - | + ((+) indicates a 50% reduction in viral plaque production) | ++ ((++) indicates an 80% reduction in viral plaque production) | no activity | 0 | 0 | 0 | 0 | no activity
Cc1cc2c(c3c1OCO3)C(C)CCC2C(C)CC(=O)CC(C)C (centres unmarked) [AH-2, Helioporin B] | 1.6 (≈ 4.84 µM) | no inhibition of growth | > 50 | - | - | + ((+) indicates a 50% reduction in viral plaque production) | ++ ((++) indicates an 80% reduction in viral plaque production) | no activity | 0 | 0 | 0 | 0 | no activity

From patent publication EP0432983A2 (priority 1989, dated 1991)
